Data reported in patent US4064254A, “Substituted piperidines therapeutic process and compositions” (Mead Johnson & Company, priority 1976, dated 1977).
Values after ≈ are worked out from the molar mass of the structure shown.

Key:
[1] = test system: serotonin (rat uterus); experiment: antiserotonin activity in the rat uterus (spasmogenic effect of serotonin); type: cell-based; conditions: rat uterine horn, 30° C., 0.4 microgram per milliliter of serotonin; read-out: IC50 (decrease of spasmogenic effect of serotonin by 50%)
Method: According to this test one of the uterine horns of a rat uterus is suspended in oxygenated salt solution at 30° C. The contractions of this tissue are then recorded and varying concentrations of the test compound introduced into the bath in order to determine the concentration that would decrease the spasmogenic effect of 0.4 microgram per milliliter of serotonin by 50%. This value is designated the IC50.

[2] = test system: serotonin in the brain in mice; experiment: antiserotonin activity in mice, 5-hydroxytryptophan / monoamine oxidase inhibitor (Corne); type: in vivo; conditions: Mus musculus
From the text: This test is dependent on the metabolism of 5-hydroxytryptophan to serotonin in the brain in mice which are pretreated with a monamine oxidase inhibitor.

[3] = test system: aconitine induced arrhythmia in the dog; experiment: aconitine induced atrial arrhythmia in the anesthetized dog, intravenous; type: in vivo; conditions: Canis lupus familiaris, read-out: effective dose restoring normal cardiac rhythm, aconitine induced arrhythmia
From the text: (§1) The chest of an anesthetized dog is opened in the midline and the right and left atrial appendages exposed through small slits in the pericardium. Bypolar recording electrodes are affixed to the atrial surfaces and a 4 × 4 mm. piece of clean cloth is fixed to the surface of the right auricular appendage. Control recordings are made of various heart functions including femoral arterial blood pressure and right and left atrial electrograms. Atrial arrhythmia is then induced by placing 3-5 drops of a solution of aconitine on the cloth which is fixed to the right atrium. […] Throughout the experiment, fresh aconitine is (2-3 drops) placed on the cloth at 10 minute intervals.

[4] = test system: electrically induced arrhythmia in the dog; experiment: electrically induced arrhythmia in the dog; type: in vivo; conditions: Canis lupus familiaris, iv
[5] = test system: aconitine induced arrhythmia in the dog; experiment: prevention of aconitine induced arrhythmia in the dog, intraduodenal administration; type: in vivo; conditions: Canis lupus familiaris, read-out: effective dose in the prevention of aconitine induced arrhythmia
From the text: as §1

[6] = test system: chloroform induced arrhythmia in the mouse; experiment: inhibition of chloroform induced arrhythmia in the mouse (Lawson); type: in vivo; conditions: ip, intraperitoneal, read-out: ED50, prevention of chloroform induced arrhythmia
From the text: Another in vivo test involves the inhibition of chloroform induced arrhythmia in the mouse according to the method of J. W. Lawson, J. Pharmacol. Exp. Therap., 160, 22 (1968).

[7] = test system: rabbit atrium; experiment: in vitro rabbit atrium test (refractory period); type: cell-based; conditions: Oryctolagus cuniculus; rabbit left atrium, 30° C., stimulated at 30 per minute; read-out: EC50 (50% of maximal increase in refractory period)
Method: In this test, the left atrium is placed in Chenoweth's solution warmed to 30° C. and irrigated with 95% oxygen: 5% carbon dioxide. The lower end of the atrium is attached to a small hook fixed in the bath and the upper end is connected to a transducer to record contractile activity. […] A test compound is introduced into the bath and the test repeated after a 5 minute interval. A dose-response relationship is obtained by additional doses of the test compound. […] This value is designated the EC50.

Structure (SMILES) | IC50 [1] [µg/mL] | ED50 ([2]; ip, 1 h, intraperitoneal, 60 minute pretreatment) [mg/kg] | ED50 ([2]; sc, 0.5 h, subcutaneous, 30 minute pretreatment) [mg/kg] | ED50 ([2]; sc, 1 h, subcutaneous, 60 minute pretreatment) [mg/kg] | minimal effective dose [3] [mg/kg] | minimal effective dose [4] [mg/kg] | minimal effective dose [5] [mg/kg] | ED50 [6] [mg/kg] | EC50 [7] [µg/mL]
CN1CCCCC1CCc1ccccc1NC(=O)C=Cc1ccccc1 (centres unmarked) [2'-[2-(1-Methyl-2-piperidyl)ethyl]-cinnamanilide] | 0.00185 (≈ 0.00531 µM) | 21 | 4.3 | 10 | – | – | – | – | –
CCN(CC)C(=O)[C@@H]1C=C2c3cccc4[nH]cc(c34)C[C@H]2N(C)C1 [lysergide, reference compound] | 0.012 (≈ 0.0371 µM) | – | – | – | – | – | – | – | –
COc1ccc(C(=O)Nc2ccccc2CCC2CCCCN2C)cc1 (centres unmarked) [4-methoxy-2'-[2-(1-methyl-2-piperidyl)ethyl]benzanilide] | 0.0046 (≈ 0.0131 µM) | – | – | – | 0.8 | 1.9 | < 10 | 7.1 | 2.4 (≈ 6.81 µM)
C=C[C@H]1C[N@@]2CC[C@H]1C[C@@H]2[C@@H](O)c1ccnc2ccc(OC)cc12 [quinidine, reference compound] | – | – | – | – | 6 | 14 | > 14 | 83 | 18 (≈ 55.5 µM)
CN1CCCCC1CCc1ccccc1N (centres unmarked) [2-(o-Aminophenethyl)-1-methylpiperidine, 2-(O-Aminophenethyl)-1-methylpiperidine] | – | – | – | – | – | – | – | – | 44 (≈ 202 µM)
